Read-outs that look alike come from different tables or passages of the source.
Legend:
[1] = biological target: T1, HiBiT-KRAS^G12D in GP5d cells (Homo sapiens, UniProt P01116, G12D); assay: HiBiT degradation assay, HiBiT-KRAS^G12D GP5d cells; type: cell-based; conditions: for Dmax / DC50: Gp5D (HiBit-G12D)
T1 construct: host or cells: GP5d HiBiT KRAS G12D

KRAS^Q61L in SW948 cells = biological target: T2, KRAS^Q61L in SW948 cells (Homo sapiens, UniProt P01116, Q61L); assay: Endogenous KRAS degradation by Western blot in SW948 cells; type: cell-based
T2 construct: host or cells: SW948

[2] = biological target: T3, KRAS^G12R in Cal-62 cells (Homo sapiens, UniProt P01116, G12R); assay: Endogenous KRAS degradation by Western blot in Cal-62 cells; type: cell-based; conditions: Cal-62 (G12R)
T3 construct: Potent degradation of endogenous KRAS^G12R was achieved by ACBI4 in the Cal-62 cell line; host or cells: Cal-62

[3] = biological target: T4, KRAS^Q61K in Calu-6 cells (Homo sapiens, UniProt P01116, Q61K); assay: Endogenous KRAS degradation by Western blot in Calu-6 cells; type: cell-based; conditions: Calu-6 (Q61K)
T4 construct: host or cells: Calu-6

[4] = biological target: T5, HiBiT-KRAS^G12R in Cal-62 cells (Homo sapiens, UniProt P01116, G12R); assay: Kinetic degradation (live mode), Cal-62 HiBiT KRAS^G12R cells; type: cell-based; conditions: Cal62-HiBit (G12R)
T5 construct: generated a HiBiT-KRAS^G12R Cal-62 knock-in cell line using the CRISPR Cas9 technology; endogenous in cells; host or cells: Cal-62 HiBiT KRAS G12R (in-house CRISPR knock-in)

Cal-62 cells = assay: CellTiter-Glo anti-proliferation, Cal-62; type: cell-based, human; conditions: Homo sapiens, 72 h; Cal-62 (G12R); read-out: CTG 72h Ic50
KRAS^G12D in GP5d cells = biological target: T6, KRAS^G12D in GP5d cells (Homo sapiens, UniProt P01116, G12D); assay: Endogenous KRAS degradation by Western blot in GP5d cells; type: cell-based
T6 construct: comparison of the degradative effect on endogenous KRAS; host or cells: GP5d

Calu-6 cells = assay: CellTiter-Glo anti-proliferation, Calu-6; type: cell-based, human; conditions: Calu-6 (Q61K)
[5] = biological target: T5, HiBiT-KRAS^G12R in Cal-62 cells; assay: HiBiT degradation assay, HiBiT-KRAS^G12R Cal-62 cells; type: cell-based; conditions: Cal-62 (HiBitG12R)
Protocol: (Gibco) with 10% FBS in a humidiﬁed cell incubator at 37 °C and 5% CO2.
Plasmids pSpCas9 BB-2A-GFP (PX458) containing gRNA, Cas9 and GFP sequences and […] plasmid containing ssDNA donor template were purchased from Genscript. Cal-62 cells were plated at 5x10^5 cells in a 6-well plate and left to adhere overnight. The next day, the transfection plasmids (0.5 µg of each gRNA plasmid and 0.5 µg of donor template) were diluted in Opti-MEM, combined with Lipofectamine solution in Opti-mem according to the manufacturer’s protocol and incubated for 20 min at RT. The mixture was added to the cells and incubated for 24 h. The next day the media was exchanged, and the cells were left to incubate for another 24 h. GFP positive cells were single-cell sorted into 96-well plates using ﬂuorescence-activated cell sorting (FACS) at the Flow Cytometry and Cell Sorting Facility (University of Dundee). Sorted cells were left to grow in conditioned media supplemented with 20% FBS for 3 weeks. Formed colonies were tested for the expression of HiBiT KRAS using the Nano-Glo® HiBiT Lytic system (Promega). The positive clones were additionally tested for insertion of the HiBiT tag by western blotting for KRAS (mouse anti-KRAS, LsBio) and HiBiT (mouse anti-HiBiT, Promega) and the insert was further conﬁrmed by Sanger sequencing. […]
gRNA1: 5’ […] 3’, gRNA2: 5’ […] 3’, gRNA 3: 5’ […]
template DNA: 5’ caatccagctt tatttgacac tcattctctc aactctcatc tgattcttac tgttaatatt tatccaagag aactactgcc atgatgcttt aaaagttttt ctgtagctgt tgcatattga cttctaacac ttagaggtgg gggtccacta ggaaaactgt aacaataaga gtggagatag ctgtcagcaa cttttgtgag ggtgtgctac agggtgtaga gcactgtgaa gtctctacat gagtgaagtc atgatatgat cctttgagag cctttagccg ccgcagaaca gcagtctggc tatttagata gaacaacttg attttaagat aaaagaactg tctatgtagc atttatgcat ttttcttaag cgtcgatgga ggagtttgta aatgaagtac agttcattac gatacacgtc tgcagtcaac tggaattttc atgattgaat tttgtaaggt attttgaaat aatttttcat ataaaggtga gtttgtatta aaaggtactg gtggagtatt tgatagtgta ttaaccttat gtgtgacatg ttctaatata gtcacatttt cattattttt attataaggc ctgctgaaa […]
atg[…]act gaGtaCaaGctCgtAgtagttggag ctCgtggc gta ggc aag agt gcc ttA acAatCcaActaattcagaatcat tttgtggacg aatatgatcc aacaatagag gtaaatcttg ttttaatatg catattactg gtgcaggacc attctttgat acagataaag gtttctctga ccattttcat gagtacttat tacaagataa ttatgctgaa agttaagtta tctgaaatgt accttgggtt tcaagttata tgtaaccatt aatatgggaa ctttactttc cttgggagta tgtcagggtc catgatgttc actctctgtg cattttgatt ggaagtgtat ttcagagttt cgtgagaggg tagaaatttg tatcctatct ggacctaaaa gacaatcttt ttattgtaac ttttattttt atgggtttct tggtattgtg acatcatatg taaaggttag atttaattgt actagtgaaa tataattgtt tgatggttga tttttttaaa cttcatcagc agtattttcc tatcttcttc tcaacattag agaacctaca actaccggat aaattttaca aaatgaatta tttgcctaag gtgtggttta tataaaggta ctattaccaa ctttaccttt gctttgttgt catttttaaa tttactcaag gaaatactag gatttaaaaa aaaattcctt 3’
Degradation via Detection of Split Nanoluciferase (HiBiT)
To assess PROTAC-mediated degradation of HiBiT-tagged KRAS constructs, cells were seeded at […]
further incubated at 37 °C for 4 and 24 h. Following incubation, 20 µL per well of Promega Nano-Glo® HiBiT lytic detection reagent mix (Promega Nano-Glo® HiBiT Lytic Detection System […]
plotted as percent of DMSO control.

KRAS^G12R in KP-2 cells = biological target: T7, KRAS^G12R in KP-2 cells (Homo sapiens, UniProt P01116, G12R); assay: Endogenous KRAS degradation by Western blot in KP-2 cells; type: cell-based; conditions: KP-2 (G12R)
T7 construct: host or cells: KP-2

## CC(C)C(C(=O)N1C[C@H](O)C[C@H]1C(=O)NCc1ccc2cnn(C)c2c1)n1nnc2c1CCC(CCCN1CCCN(c3nccc(-c4noc([C@@]5(C)CCCc6sc(N)c(C#N)c65)n4)n3)[C@@H](C)C1)C2 (mixture of isomers) [Compound 4]
[1]; 4 h, read-out: DMax 4h
  Dmax: 83%
[1]; 4 h, read-out: Dc50 4h
  DC50: 14 nM
[1]; 24 h, read-out: DMax 24h
  Dmax: 94%
[1]; 24 h, read-out: Dc50 24h
  DC50: 4 nM
[1]; HiBiT-KRAS^G12D, 24 h
  fold improvement in DC50 over 3: ~9 fold
KRAS^Q61L in SW948 cells; 4 h
  Dc50 4h: unstable
KRAS^Q61L in SW948 cells; 4 h, read-out: DMax 4h
  Dmax: 49%
KRAS^Q61L in SW948 cells; 18 h
  Dc50 18h: unstable
KRAS^Q61L in SW948 cells; 18 h, read-out: DMax 18h
  Dmax: 50%
[2]; 4 h, read-out: DMax 4h
  Dmax: 64%
[2]; 4 h, read-out: Dc50 4h
  DC50: 1530 nM
[2]; 18 h, read-out: DMax 18h
  Dmax: 93%
[2]; 18 h, read-out: Dc50 18h
  DC50: 418 nM
[3]; 4 h, read-out: DMax 4h
  Dmax: 25%
[3]; 4 h, read-out: Dc50 4h
  DC50: 146 nM
[3]; 18 h, read-out: DMax 18h
  Dmax: 72%
[3]; 18 h, read-out: Dc50 18h
  DC50: 187 nM
[4]
  1/K (Tau): 1.972 µM
  Plateau (degradation rate): 0.2614 min⁻¹
  Plateu/ Tau: 2207 M⁻¹ s⁻¹
Cal-62 cells
  IC50: 488 nM
KRAS^G12D in GP5d cells; 4 h, read-out: DMax 4h
  Dmax: 83.5%
KRAS^G12D in GP5d cells; 4 h, read-out: Dc50 4h
  DC50: 68 nM
KRAS^G12D in GP5d cells; 18 h, read-out: DMax 18h
  Dmax: 96.5%
KRAS^G12D in GP5d cells; 18 h, read-out: Dc50 18h
  DC50: 16 nM
Calu-6 cells
  CTG 72h Ic50: unstable
[5]; 4 h, read-out: DMax 4h
  Dmax: 76%
[5]; 4 h, read-out: Dc50 4h
  DC50: 163 nM
[5]; 24 h, read-out: DMax 24h
  Dmax: 87%
[5]; 24 h, read-out: Dc50 24h
  DC50: 183 nM
KRAS^G12R in KP-2 cells; 4 h, read-out: DMax 4h
  Dmax: 37%
KRAS^G12R in KP-2 cells; 4 h, read-out: Dc50 4h
  DC50: 6 nM
KRAS^G12R in KP-2 cells; 18 h, read-out: DMax 18h
  Dmax: 70%
KRAS^G12R in KP-2 cells; 18 h, read-out: Dc50 18h
  DC50: 224 nM

Source: PMC12616682, “Identification of a Highly Cooperative PROTAC Degrader Targeting GTP-Loaded KRAS(On) Alleles” (Journal of the American Chemical Society, 2025)
